Experimental data: patent US20200405696A1, “INHIBITORS OF INDOLEAMINE 2,3-DIOXYGENASE AND/OR TRYPTOPHAN 2,3-DIOXYGENASE” (IDORSIA PHARMACEUTICALS LTD, priority 2018, published 2020)

Tests used:
[1] = molecular target: T1, Recombinant human TDO comprising amino acids 19-407 (Homo sapiens, UniProt P48775); assay: TDO2 enzymatic assay (NFK quantified by LCMS); format: biochemical; conditions: 15 nM enzyme, 200 μM L-tryptophan, pH7, 30 minutes pre-incubation at RT; mean values when measured multiple times; read-out: hTDO activity (IC50 in nM)
T1 construct: Recombinant human TDO comprising amino acids 19-407 with a N-terminal hexahistidine tag; hexahistidine (His6) (N); made in house; host or cells: E. coli
Method in brief: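 NFK formed over 30 min at RT from 200 μM L-tryptophan was measured by LCMS, normalized to d5-tryptophan, after compound (0.5 nM–10 μM, duplicates, 0.6% DMSO) was preincubated 30 min with 15 nM recombinant His-tagged TDO 19-407 in phosphate buffer pH 7. IC50 from four-parameter logistic fit; repeats averaged.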

[2] = molecular target: T2, Recombinant full-length human IDO1 (Homo sapiens, UniProt P14902); assay: IDO1 enzymatic assay (NFK quantified by LCMS); format: biochemical; conditions: 2 nM enzyme, 5 μM L-tryptophan, pH6.5, 30 minutes pre-incubation at RT; mean values when measured multiple times; read-out: hIDO activity (IC50 in nM)
T2 construct: Recombinant full-length human IDO1 with a N-terminal hexahistidine tag; hexahistidine (His6) (N); made in house; host or cells: E. coli
Method in brief: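 IC50 comes from four-parameter logistic fits of duplicate data, with NFK quantified by LCMS and normalized to L-Trp-(indole-d5). Compound (0.5 nM–10 μM) was preincubated 30 min at RT with 2 nM E. coli-expressed IDO1 before a 30 min reaction with 5 μM tryptophan in pH 6.5 buffer containing ascorbate and methylene blue.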

T2 sequence (P14902 whole entry): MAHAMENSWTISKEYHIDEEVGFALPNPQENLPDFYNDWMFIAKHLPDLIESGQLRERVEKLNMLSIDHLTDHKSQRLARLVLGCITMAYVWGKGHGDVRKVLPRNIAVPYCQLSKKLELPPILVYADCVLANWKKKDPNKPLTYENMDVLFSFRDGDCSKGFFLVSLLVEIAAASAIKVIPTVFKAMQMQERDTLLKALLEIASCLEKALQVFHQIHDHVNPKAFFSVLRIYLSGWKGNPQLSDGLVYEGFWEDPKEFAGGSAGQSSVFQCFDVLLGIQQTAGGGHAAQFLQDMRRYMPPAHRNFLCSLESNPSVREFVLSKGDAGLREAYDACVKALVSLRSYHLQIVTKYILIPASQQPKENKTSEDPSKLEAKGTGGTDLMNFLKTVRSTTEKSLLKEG
T1 sequence (P48775 19-406 limits assumed): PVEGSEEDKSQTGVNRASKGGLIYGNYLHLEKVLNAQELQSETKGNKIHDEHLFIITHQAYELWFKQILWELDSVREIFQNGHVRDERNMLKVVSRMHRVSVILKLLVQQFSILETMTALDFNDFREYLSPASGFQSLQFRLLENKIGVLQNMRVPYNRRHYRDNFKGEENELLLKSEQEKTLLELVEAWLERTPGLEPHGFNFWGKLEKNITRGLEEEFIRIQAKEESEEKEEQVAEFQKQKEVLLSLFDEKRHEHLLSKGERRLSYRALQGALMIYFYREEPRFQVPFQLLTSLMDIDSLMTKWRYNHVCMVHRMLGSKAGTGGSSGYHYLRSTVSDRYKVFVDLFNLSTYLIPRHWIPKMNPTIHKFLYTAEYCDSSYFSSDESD

Structure (SMILES)	IC50 [1]	IC50 [2]
CC(C)(O)CCOc1ccc(-n2cc(C(O)c3c([C@@H]4C[C@@H]4F)sc4cncn34)nn2)cc1Cl (relative stereo) [Example 309, 4-[2-Chloro-4-(4-{[2-(cis-2-fluoro-cyclopropyl)-imidazo[5,1-b]thiazol-3-yl]-hydroxy-methyl}-[1,2,3]triazol-1-yl)-phenoxy]-2-methyl-butan-2-ol]	> 10200 nM	17 nM
OC(c1cn(-c2ccc(OCc3ccccc3)c(F)c2)nn1)c1c([C@@H]2C[C@H]2F)sc2cncn12 (relative stereo) [Example 322, [1-(4-Benzyloxy-3-fluoro-phenyl)-1H-[1,2,3]triazol-4-yl]-[2-(trans-2-fluoro-cyclopropyl)-imidazo[5,1-b]thiazol-3-yl]-methanol]	> 10200 nM	16.2 nM
Oc1ccc(-n2cc(C(O)c3c([C@@H]4C[C@@H]4F)sc4cncn34)nn2)cc1Cl (relative stereo) [Example 325, 2-Chloro-4-(4-{[2-(cis-2-fluoro-cyclopropyl)-imidazo[5,1-b]thiazol-3-yl]-hydroxy-methyl}-[1,2,3]triazol-1-yl)-phenol]	> 10200 nM	8.31 nM
Oc1ccc(-n2cc(C(O)c3c([C@@H]4C[C@H]4F)sc4cncn34)nn2)cc1Cl (relative stereo) [Example 328, 2-Chloro-4-(4-{[2-(trans-2-fluoro-cyclopropyl)-imidazo[5,1-b]thiazol-3-yl]-hydroxy-methyl}-[1,2,3]triazol-1-yl)-phenol]	> 10200 nM	13.1 nM
COc1ccc(-n2nnc(C(O)c3c([C@@H]4C[C@H]4F)sc4cncn34)c2F)cc1 (relative stereo) [Example 335, [2-(trans-2-Fluoro-cyclopropyl)-imidazo[5,1-b]thiazol-3-yl]-[5-fluoro-1-(4-methoxy-phenyl)-1H-[1,2,3]triazol-4-yl]-methanol]	> 10200 nM	23 nM
O[C@@H](c1cn(-c2ccccc2)nn1)c1c(C2CC2)sc2cncn12 [Example 2a, (R)-(2-Cyclopropyl-imidazo[5,1-b]thiazol-3-yl)-(1-phenyl-1H-[1,2,3]triazol-4-yl)-methanol]	> 10200 nM	11.7 nM
COc1ccc(-n2cc([C@H](O)c3c(C4CC4)sc4cncn34)nn2)cc1 [Example 9a, (R)-(2-Cyclopropyl-imidazo[5,1-b]thiazol-3-yl)-[1-(4-methoxy-phenyl)-1H-[1,2,3]triazol-4-yl]-methanol]	> 10200 nM	5.98 nM
O[C@@H](c1cn(-c2ccc3[nH]ccc3c2)nn1)c1c(C2CC2)sc2cncn12 [Example 16a, (R)-(2-Cyclopropyl-imidazo[5,1-b]thiazol-3-yl)-[1-(1H-indol-5-yl)-1H-[1,2,3]triazol-4-yl]-methanol]	4570 nM	4.55 nM
N#Cc1cccc(-n2cc([C@H](O)c3c(C4CC4)sc4cncn34)nn2)c1 [Example 18a, 3-{4-[(R)-(2-Cyclopropyl-imidazo[5,1-b]thiazol-3-yl)-hydroxy-methyl]-[1,2,3]triazol-1-yl}-benzonitrile]	> 10200 nM	13.5 nM
O[C@@H](c1cn(-c2ccc(OCC3CC3)cc2)nn1)c1c(C2CC2)sc2cncn12 [Example 35a, (R)-(2-Cyclopropyl-imidazo[5,1-b]thiazol-3-yl)-[1-(4-cyclopropylmethoxy-phenyl)-1H-[1,2,3]triazol-4-yl]-methanol]	> 10200 nM	9.7 nM
CCc1sc2cncn2c1[C@@H](O)c1cn(-c2ccc(NC(=O)OC)cc2)nn1 [Example 49a, (4-{4-[(R)-(2-Ethyl-imidazo[5,1-b]thiazol-3-yl)-hydroxy-methyl]-[1,2,3]triazol-1-yl}-phenyl)-carbamic acid methyl ester]	1040 nM	2.7 nM
O[C@@H](c1cn(-c2ccc(OCC3CCOCC3)cc2)nn1)c1c(C2CC2)sc2cncn12 [Example 87a, (R)-(2-Cyclopropyl-imidazo[5,1-b]thiazol-3-yl)-{1-[4-(tetrahydro-pyran-4-ylmethoxy)-phenyl]-1H-[1,2,3]triazol-4-yl}-methanol]	> 10200 nM	4.55 nM
O[C@@H](c1cnn(-c2ccccc2)c1)c1c(C2CC2)sc2cncn12 [Example 100a, (S)-(2-Cyclopropyl-imidazo[5,1-b]thiazol-3-yl)-(1-phenyl-1H-pyrazol-4-yl)-methanol]	2450 nM	17.5 nM
Cc1c([C@H](O)c2c(C3CC3)sc3cncn23)nnn1-c1ccccc1 [Example 101a, (R)-(2-Cyclopropyl-imidazo[5,1-b]thiazol-3-yl)-(5-methyl-1-phenyl-1H-[1,2,3]triazol-4-yl)-methanol]	4410 nM	6.31 nM
OCCCOc1ccc(-n2cc([C@H](O)c3c(C4CC4)sc4cncn34)nn2)cc1 [Example 137a, 3-(4-{4-[(R)-(2-Cyclopropyl-imidazo[5,1-b]thiazol-3-yl)-hydroxy-methyl]-[1,2,3]triazol-1-yl}-phenoxy)-propan-1-ol]	> 10200 nM	4.09 nM
CC(C)(O)COc1ccc(-n2cc([C@H](O)c3c(C4CC4)sc4cncn34)nn2)cc1 [Example 139a, 1-(4-{4-[(R)-(2-Cyclopropyl-imidazo[5,1-b]thiazol-3-yl)-hydroxy-methyl]-[1,2,3]triazol-1-yl}-phenoxy)-2-methyl-propan-2-ol]	> 10200 nM	5.44 nM
CC(C)(O)CCOc1ccc(-n2cc([C@H](O)c3c(C4CC4)sc4cncn34)nn2)cc1 [Example 140a, 4-(4-{4-[(R)-(2-Cyclopropyl-imidazo[5,1-b]thiazol-3-yl)-hydroxy-methyl]-[1,2,3]triazol-1-yl}-phenoxy)-2-methyl-butan-2-ol]	> 10200 nM	7.31 nM
O[C@@H](c1cn(-c2ccc(OCCC3(O)CC3)cc2)nn1)c1c(C2CC2)sc2cncn12 [Example 142a, 1-[2-(4-{4-[(R)-(2-Cyclopropyl-imidazo[5,1-b]thiazol-3-yl)-hydroxy-methyl]-[1,2,3]triazol-1-yl}-phenoxy)-ethyl]-cyclopropanol]	> 10200 nM	9.51 nM
OC(c1cn(-c2ccc(OCC3CCCCO3)cc2)nn1)c1c(C2CC2)sc2cncn12 (stereo not drawn) [Example 143, (2-Cyclopropyl-imidazo[5,1-b]thiazol-3-yl)-{1-[4-(tetrahydro-pyran-2-ylmethoxy)-phenyl]-1H-[1,2,3]triazol-4-yl}-methanol]	> 10200 nM	18.1 nM
O[C@@H](c1cn(-c2ccc(OCC3(F)COC3)cc2)nn1)c1c(C2CC2)sc2cncn12 [Example 145a, (R)-(2-Cyclopropyl-imidazo[5,1-b]thiazol-3-yl)-{1-[4-(3-fluoro-oxetan-3-ylmethoxy)-phenyl]-1H-[1,2,3]triazol-4-yl}-methanol]	> 10200 nM	8.77 nM
CN1CCCC(COc2ccc(-n3cc(C(O)c4c(C5CC5)sc5cncn45)nn3)cc2)C1 (stereo not drawn) [Example 146, (2-Cyclopropyl-imidazo[5,1-b]thiazol-3-yl)-{1-[4-(1-methyl-piperidin-3-ylmethoxy)-phenyl]-1H-[1,2,3]triazol-4-yl}-methanol]	> 10200 nM	44.4 nM
Oc1ccc(-n2cc([C@H](O)c3c(C4CC4)sc4cncn34)nn2)cc1Cl [Example 148a, 2-Chloro-4-{4-[(R)-(2-cyclopropyl-imidazo[5,1-b]thiazol-3-yl)-hydroxy-methyl]-[1,2,3]triazol-1-yl}-phenol]	4440 nM	5.25 nM
CC(C)C(=O)Nc1ccc(-n2cc([C@H](O)c3c(C4CC4)sc4cncn34)nn2)cc1 [Example 192a, N-(4-{4-[(R)-(2-Cyclopropyl-imidazo[5,1-b]thiazol-3-yl)-hydroxy-methyl]-[1,2,3]triazol-1-yl}-phenyl)-isobutyramide]	> 10200 nM	3.71 nM
CCc1sc2cncn2c1C(O)c1cn(-c2ccc3c(c2)C(C)NS3(=O)=O)nn1 (stereo not drawn) [Example 227, (2-Ethyl-imidazo[5,1-b]thiazol-3-yl)-[1-(3-methyl-1,1-dioxo-2,3-dihydro-1H-1I6-benzo[d]isothiazol-5-yl)-1H-[1,2,3]triazol-4-yl]-methanol]	> 10200 nM	77.8 nM
CC1NS(=O)(=O)c2ccc(-n3cc(C(O)c4c(C5CC5)sc5cncn45)nn3)cc21 (stereo not drawn) [Example 228, (2-Cyclopropyl-imidazo[5,1-b]thiazol-3-yl)-[1-(3-methyl-1,1-dioxo-2,3-dihydro-1H-1I6-benzo[d]isothiazol-5-yl)-1H-[1,2,3]triazol-4-yl]-methanol]	> 10200 nM	76.1 nM
CC(C)(O)CCOc1ccc(-n2cc([C@H](O)c3c(-c4ccccc4)sc4cncn34)nn2)cc1Cl [Example 268a, 4-(2-Chloro-4-{4-[(R)-hydroxy-(2-phenyl-imidazo[5,1-b]thiazol-3-yl)-methyl]-[1,2,3]triazol-1-yl}-phenoxy)-2-methyl-butan-2-ol]	10000 nM	123 nM
OCCCOc1ccc(-n2cc([C@H](O)c3c(C4CC4)sc4cncn34)nn2)cc1Cl [Example 275, 3-(2-Chloro-4-{4-[(R)-(2-cyclopropyl-imidazo[5,1-b]thiazol-3-yl)-hydroxy-methyl]-[1,2,3]triazol-1-yl}-phenoxy)-propan-1-ol]	> 10200 nM	7.03 nM
